Among the test systems are CAKI-1 renal; BT-549 breast; OVCAR-8 ovarian; SNB-75 CNS; CCRF-CEM leukemia; MALME-3M melanoma; OVCAR-5 ovarian; HT29 colon; HOP-62 NSCLC; MCF7 breast.
Holding throughout (experiment): NCI tumour cell line growth inhibition, 48 h

These results are taken from PubChem BioAssay (NCI).

Structures are written as SMILES.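 Grown in 96-well plates, cells were treated for 48 hours with each compound at five concentrations. Insufficient inhibition: endpoint recorded as highest concentration tested. Definition used: TGI = concentration required for complete inhibition of growth.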

For `CC12ON(P(=O)(c3ccccc3)c3ccccc3)C(C)(c3ccccc31)c1ccccc12`, the TGI in the assay with CAKI-1 renal, with BT-549 breast, in the assay with OVCAR-8 ovarian, in the assay with SNB-75 CNS, in the assay on CCRF-CEM leukemia and with MALME-3M melanoma was above 100 µM in each case. The TGI in the assay with OVCAR-5 ovarian, with HT29 colon and in the assay on HOP-62 NSCLC was above 100 µM in each case.

Consider `CN[C@@H](C)[C@@H](O)c1ccccc1`, for which the TGI in the assay on CAKI-1 renal is above 100 µM; in the assay on MCF7 breast, above 100 µM; in the assay on OVCAR-8 ovarian it was above 100 µM; in the assay on SNB-75 CNS it was above 100 µM; in the assay on CCRF-CEM leukemia, above 10 µM; in the assay on MALME-3M melanoma, above 100 µM. For the same compound, the TGI in the assay on OVCAR-5 ovarian, in the assay on HT29 colon and with HOP-62 NSCLC was above 100 µM in each case.

As to `CC(=O)Oc1cc(OC(C)=O)c2c(C)cc(=O)oc2c1`, the TGI in the assay with MCF7 breast, in the assay on OVCAR-8 ovarian, with SNB-75 CNS, in the assay with CCRF-CEM leukemia, in the assay with MALME-3M melanoma and in the assay with OVCAR-5 ovarian was above 100 µM in each case. The TGI with HT29 colon and in the assay on HOP-62 NSCLC was above 100 µM throughout.

In the case of `COC([C@@H](OC(=O)c1ccccc1)[C@H](OC(=O)c1ccccc1)C(O)COC(=O)c1ccccc1)n1cc(C)c(=O)[nH]c1=O` (some centres not stated), the TGI is 52.3 µM in the assay on MCF7 breast; 77 µM with BT-549 breast; above 100 µM in the assay on OVCAR-8 ovarian; 73.8 µM with SNB-75 CNS; 91.7 µM in the assay with MALME-3M melanoma; 62.6 µM in the assay with OVCAR-5 ovarian. Also, the TGI in the assay with HT29 colon was 41.4 µM; with HOP-62 NSCLC, above 100 µM.

As to `C[n+]1c2ccccc2c(/C=N\NS(=O)(=O)c2ccc(Cl)cc2)c2ccccc21`, the TGI with CAKI-1 renal, with OVCAR-8 ovarian, in the assay with SNB-75 CNS, with CCRF-CEM leukemia, in the assay on MALME-3M melanoma and in the assay with OVCAR-5 ovarian was above 100 µM throughout. The TGI in the assay on HT29 colon and in the assay on HOP-62 NSCLC was above 100 µM each time.

`O=[N+]([O-])c1ccc([N+]2=NC(c3ccccc3)=NN(c3ccccc3)C2)cc1`: the TGI in the assay on CAKI-1 renal, with OVCAR-8 ovarian, in the assay with SNB-75 CNS, in the assay with CCRF-CEM leukemia, in the assay on MALME-3M melanoma and in the assay on OVCAR-5 ovarian was above 100 µM throughout. The results for the TGI in the assay on HT29 colon and in the assay with HOP-62 NSCLC were above 100 µM and 47.9 µM, respectively.

Turning to `CN(Cc1cnc2nc(N)nc(N)c2n1)c1ccc(C(=O)NC(CCC(=O)NC(CC(P(=O)(O)O)P(=O)(O)O)C(=O)O)C(=O)O)cc1` (configuration not stated), the TGI in the assay with MCF7 breast, with BT-549 breast, with OVCAR-8 ovarian, in the assay on SNB-75 CNS, in the assay with MALME-3M melanoma and with OVCAR-5 ovarian was above 100 µM in each case. The TGI with HT29 colon and in the assay on HOP-62 NSCLC was above 100 µM throughout.

Turning to `Cc1c2ccccc2c(C)n2c1nc1ccccc12`, the TGI is 13.3 µM in the assay on MCF7 breast; 35.3 µM in the assay on BT-549 breast; above 100 µM with OVCAR-8 ovarian; 27.7 µM in the assay with SNB-75 CNS; 60.5 µM with CCRF-CEM leukemia; 23.5 µM with MALME-3M melanoma. For the same compound, the TGI in the assay with OVCAR-5 ovarian came out at 48.3 µM; in the assay with HT29 colon it was 69 µM; with HOP-62 NSCLC, 36 µM.

As for `CN(C)c1ccc(/C=C/C(=O)O)cc1`, the TGI in the assay with CAKI-1 renal, in the assay with OVCAR-8 ovarian, in the assay with SNB-75 CNS, with CCRF-CEM leukemia, in the assay on MALME-3M melanoma and in the assay on OVCAR-5 ovarian was above 100 µM in each case. In addition, the TGI in the assay with HT29 colon and in the assay on HOP-62 NSCLC was above 100 µM each time.

Take `CNC(=S)NNc1ncnc2c1ncn2-c1ccc(C)cc1`: the TGI with CAKI-1 renal, with BT-549 breast, in the assay with OVCAR-8 ovarian, in the assay with CCRF-CEM leukemia, with MALME-3M melanoma and in the assay on OVCAR-5 ovarian was above 100 µM throughout. Also, the TGI in the assay with HT29 colon and in the assay with HOP-62 NSCLC was above 100 µM throughout.

On to `CCN(CC)CCOc1ccc(C(O)(Cc2ccc(OC)cc2)c2ccccc2)cc1` (configuration not stated), for which the TGI in the assay on CAKI-1 renal is 50.9 µM; in the assay with OVCAR-8 ovarian, above 100 µM; in the assay on SNB-75 CNS it was 27.6 µM; in the assay on CCRF-CEM leukemia it was 44.9 µM; with MALME-3M melanoma, 33 µM; with OVCAR-5 ovarian, 61.5 µM. For the same compound, the TGI is 14.6 µM with HT29 colon and 32.5 µM in the assay on HOP-62 NSCLC.

Take `CCC(=O)/C(=C\I)c1ccccc1`: the TGI in the assay with BT-549 breast is 3.3 µM; with OVCAR-8 ovarian, 3.68 µM; with SNB-75 CNS it was 3.48 µM; with MALME-3M melanoma, 3.23 µM; in the assay on OVCAR-5 ovarian, 3.48 µM; with HT29 colon, 2.51 µM. The same compound returned a TGI in the assay on HOP-62 NSCLC of 39.7 µM.

On to `Nc1ccc2ccc(-c3ccc[nH]3)nc2n1`, for which the TGI in the assay on CAKI-1 renal, with MCF7 breast, with BT-549 breast, with OVCAR-8 ovarian, in the assay with SNB-75 CNS and with MALME-3M melanoma was above 100 µM in each case. For the same compound, the TGI in the assay on OVCAR-5 ovarian and in the assay with HOP-62 NSCLC was above 100 µM each time.

As for `COP(=O)(O)C(N)Cc1c[nH]c2ccccc12` (configuration not stated), the TGI in the assay on CAKI-1 renal, in the assay on MCF7 breast, with OVCAR-8 ovarian, in the assay on CCRF-CEM leukemia, with OVCAR-5 ovarian and with HT29 colon was above 100 µM each time. The compound further had a TGI in the assay with HOP-62 NSCLC above 100 µM.

In the case of `O=C(CSc1nnc(-c2ccc(N=Cc3ccc(Cl)cc3)cc2)o1)Nc1ccc([N+](=O)[O-])cc1`, the TGI in the assay on OVCAR-8 ovarian is above 100 µM; in the assay with SNB-75 CNS it was 58.1 µM; in the assay on CCRF-CEM leukemia, 47.6 µM; in the assay with MALME-3M melanoma, above 100 µM; with HT29 colon it was 35.9 µM; in the assay on HOP-62 NSCLC it was above 100 µM.

For `COc1cccc(-c2nccc3c(OCc4ccccc4)c(OC)c(OC)cc23)c1`, the TGI with OVCAR-8 ovarian, in the assay with SNB-75 CNS, in the assay with CCRF-CEM leukemia, with MALME-3M melanoma, in the assay on OVCAR-5 ovarian and with HT29 colon was above 100 µM in each case. This compound gave a TGI in the assay on HOP-62 NSCLC above 100 µM.

Regarding `CCOC(=O)C(=O)CC(=O)C1=C(c2ccccc2OC)CC(c2cccs2)=CC1=O`, the TGI with CAKI-1 renal is above 100 µM; with BT-549 breast, above 100 µM; in the assay on OVCAR-8 ovarian it was above 100 µM; in the assay with SNB-75 CNS, 49.8 µM; with CCRF-CEM leukemia, above 100 µM; with MALME-3M melanoma, above 100 µM. Further, the TGI with OVCAR-5 ovarian, in the assay with HT29 colon and in the assay on HOP-62 NSCLC was above 100 µM in each case.

Regarding `O=C1/C(=C/c2ccccc2)NC(=S)N1CN1CCCCC1`, the TGI in the assay on MCF7 breast, with OVCAR-8 ovarian, in the assay with SNB-75 CNS, in the assay with CCRF-CEM leukemia, with OVCAR-5 ovarian and in the assay with HT29 colon was above 100 µM in each case. For the same compound, in the assay on HOP-62 NSCLC, the TGI is above 100 µM.

Regarding `Cc1cc(O)cc(O)c1C(=O)O[C@]1(C)C(=O)C=C2C=C(/C=C/C(=O)O)OC=C2C1=O`, the TGI in the assay on CAKI-1 renal is above 100 µM; with MCF7 breast it was above 100 µM; in the assay on OVCAR-8 ovarian it was above 100 µM; in the assay with SNB-75 CNS it was above 100 µM; with CCRF-CEM leukemia, 88.3 µM; with MALME-3M melanoma it was above 100 µM. The TGI with OVCAR-5 ovarian, in the assay on HT29 colon and in the assay with HOP-62 NSCLC was above 100 µM each time.

As to `N#CC[N+]1(Cc2ccccn2)CCCC1`, the TGI in the assay with CAKI-1 renal, with MCF7 breast, in the assay on BT-549 breast, in the assay with OVCAR-8 ovarian, in the assay on SNB-75 CNS and in the assay with MALME-3M melanoma was above 100 µM throughout. Further, the TGI in the assay with OVCAR-5 ovarian, in the assay with HT29 colon and in the assay on HOP-62 NSCLC was above 100 µM in each case.

Consider `Cn1ccnc1CCc1ccc(Cl)c(Cl)c1`, for which the TGI in the assay on CAKI-1 renal, with OVCAR-8 ovarian, with SNB-75 CNS, in the assay with CCRF-CEM leukemia, in the assay on MALME-3M melanoma and with OVCAR-5 ovarian was above 100 µM each time. The TGI in the assay on HT29 colon and in the assay with HOP-62 NSCLC was above 100 µM in each case.

Regarding `N[C@H](CCC(=O)NCP(=O)(O)O)C(=O)O`, the TGI in the assay on MCF7 breast, in the assay with BT-549 breast, in the assay with OVCAR-8 ovarian, in the assay with MALME-3M melanoma, in the assay with OVCAR-5 ovarian and with HT29 colon was above 100 µM throughout. Also, the TGI in the assay on HOP-62 NSCLC was above 100 µM.

Turning to `O=C(O)CCc1ccc2c(c1)CC1(Cc3ccccc3C1)C2`, the TGI in the assay on MCF7 breast is above 100 µM; in the assay with OVCAR-8 ovarian, above 100 µM; in the assay with SNB-75 CNS it was 96.4 µM; in the assay on CCRF-CEM leukemia, above 100 µM; in the assay with MALME-3M melanoma, above 100 µM; in the assay on OVCAR-5 ovarian it was above 100 µM. The TGI in the assay with HT29 colon and in the assay on HOP-62 NSCLC was above 100 µM in each case.

Turning to `CCCCCN(CCCCC)CC(C)(C)C(O)c1ccc(OC)c2ccccc12` (configuration not stated), the TGI was 28 µM in the assay on CAKI-1 renal; 22.5 µM in the assay on MCF7 breast; 22.9 µM with OVCAR-8 ovarian; 51.9 µM in the assay on SNB-75 CNS; above 100 µM with CCRF-CEM leukemia; 29.9 µM with MALME-3M melanoma. Besides, the TGI is 31.4 µM in the assay on OVCAR-5 ovarian, 16.5 µM in the assay with HT29 colon and above 100 µM with HOP-62 NSCLC.
